Results: paper PMC9606102, “[^89Zr]Zr-PSMA-617 PET/CT in biochemical recurrence of prostate cancer: first clinical experience from a pilot study including biodistribution and dose estimates” (European Journal of Nuclear Medicine and Molecular Imaging, 2022)

Columns and labels:
[1] = [^89Zr]Zr-PSMA-617 PET/CT biodistribution in normal organs (SUV, tissue-to-background ratio); assay type: in vivo, human (patients); settings: for SUVmax: mean ± SD
Procedure: (§1) Each patient underwent PET/CT imaging scans at 4 time points: 1 h, 24 h, 48 h, and 72 h post intravenous injection (p.i.) of 111 ± 11 MBq (mean ± standard deviation, range 97–129 MBq) [^89Zr]Zr-PSMA-617. All PET/CT imaging was performed on a Biograph mCT 40 scanner (Siemens Medical Solutions, Knoxville, TN, USA) comprising whole-body PET/CT scans extending from vertex to mid-femur in 3D mode. PET acquisition time duration was 4 min per bed position on the initial day of injection and extended up to 10 min on the last day. CT data were acquired in low-dose technique using an X-ray tube voltage of […] and a modulation of the tube current (CARE Dose4D, Siemens Erlangen; maximal tube current 30 mA) followed by reconstruction with a soft tissue reconstruction kernel (B31f) to a slice thickness of 5 mm (increment 2–4 mm). PET emission data was corrected for decay, randoms, and scatter. PET image reconstruction was performed applying an iterative 3-dimensional ordered-subset expectation maximization (OSEM) algorithm (3 iterations; 24 subsets) with gaussian filtering to a transaxial resolution of 5 mm at full width half maximum (FWHM). The matrix and the pixel size were 200 × 200 and 3.0 mm, respectively. Attenuation correction was performed using the low-dose CT data.
The biodistribution of [^89Zr]Zr-PSMA-617 was quantified by analyzing the standard uptake values (SUV) SUVmax, SUVpeak and SUVmean at 1 h, 24 h, 48 h, and 72 h p.i.. Considering normal-organs, elliptical volumes of interest (VOI) were manually drawn enclosing regions of relatively homogenous uptake. Activity estimation was performed within the VOI applying a 40% or, in case of faintly accumulating organs, a 20% threshold using the SyngoVia software (Enterprise VB 60, Siemens, Erlangen, Germany). The following organs were included in this evaluation: the brain, salivary, and lacrimal glands, nasal mucosa, lung, liver, spleen, small and large intestine, and the kidneys. With regard to the large intestine, SUV was determined at the descending colon. Blood pool and background were evaluated in the descending aorta and the gluteal muscle, respectively. Tissue-to-background ratios (TiBR) were calculated by dividing the SUVmax of the organs by the SUVmean of the background (gluteal muscle).

prostate cancer lesions = experiment: [^89Zr]Zr-PSMA-617 PET/CT tumor lesion detection and uptake in biochemical recurrence; assay type: in vivo, human (patients)
Procedure: Three patients had undetermined findings on [^68Ga]Ga-PSMA-11 PET/CT with no definite assignment to pathological or physiological uptake, e.g., faintly accumulating or unusually located tracer uptake. The time interval between both, [^89Zr]Zr-PSMA-617 and [^68Ga]Ga-PSMA-11 PET/CT, was 31 ± 18 days (range 5–49 days), with no treatment performed in between. Prostate-specific antigen (PSA) serum level at time of imaging ranged from 0.43 to 1.92 ng/ml. All patients were initially treated with radical prostatectomy (RP). Initial Gleason score ranged from 7a to 9. Four patients underwent salvage treatments such as androgen-deprivation therapy (ADT), lymphadenectomy (LA) or radiation therapy (RT). Detailed patient characteristics including age, Gleason score, primary therapy, salvage therapies, time from initial diagnosis (ID) of prostate cancer, PSA and PSA doubling time (DT) are presented in Table 1. [^89Zr]Zr-PSMA-617 PET/CT imaging was performed on a compassionate use basis under the German Pharmaceutical Act §13 (2b). The medical indication for the examination and the labeling of the tracer were under the direct responsibility of the applying physician. Patients gave their written consent after being thoroughly informed about the general risks of both radiation exposure and application of a novel PET tracer including possible adverse effects of, e.g., therapeutic PSMA tracers. Furthermore, all patients agreed to the publication of the resulting data in accordance with the Declaration of Helsinki.
as §1
Three physicians with long-time experience in PSMA-targeted PET/CT (S.E., F.K., and F.R.) visually identified suspicious lesions taking into account all four imaging time points (1 h, 24 h, 48 h, and 72 h p.i.).

[2] = of the 11 lesions not visible at 1 h p.i.

Compound `O=C([O-])CN1CCN(CC(=O)[O-])CCN(CC(=O)NCC2CCC(C(=O)NC(Cc3ccc4ccccc4c3)C(=O)NCCCCC(NC(=O)NC(CCC(=O)O)C(=O)O)C(=O)O)CC2)CCN(CC(=O)[O-])CC1.[89Zr+4]` (centres unmarked) [[^89Zr]Zr-PSMA-617] has an SUVmax ([1]; colon, 1 h p.i.) of 3.50 ± 2.21, an SUVmax ([1]; colon, 72 h p.i.) of 13.57 ± 5.00 and an SUVmax ([1]; kidneys, 1 h p.i.) of 21.15 ± 12.31. For the same compound, the SUVmax ([1]; kidneys, 72 h p.i.) was 7.43 ± 1.56, the “Tissue-to-background ratio (TiBR)” value ([1]; salivary glands, kidneys, and colon at 72 h p.i., SUVmax organ / SUVmean gluteal muscle) was at least 50 and the SUVmax ([1]; submandibular gland, 24 h p.i.) was 17.30 ± 4.69. For the same compound, the SUVmax ([1]; submandibular gland, 72 h p.i.) was 6.29 ± 1.61, the “Patients whose undetermined [^68Ga]Ga-PSMA-11 findings were confirmed” value (prostate cancer lesions; 3 patients with undetermined findings in [^68Ga]Ga-PSMA-11 PET/CT) was 2 of 3 and the “Detectability of tumor lesions at late time points” value (prostate cancer lesions; 48 h p.i. and 72 h p.i.) was “All tumor lesions were detectable”. For the same compound, the “Findings on [^89Zr]Zr-PSMA-617 PET/CT” value (prostate cancer lesions; Pt. no 1, PSA 1.92 ng/ml) was “Local recurrence”, the “Findings on [^89Zr]Zr-PSMA-617 PET/CT” value (prostate cancer lesions; Pt. no 2, PSA 1.75 ng/ml) was 3 × LNM (no right iliac LNM) and the “Findings on [^89Zr]Zr-PSMA-617 PET/CT” value (prostate cancer lesions; Pt. no 3, PSA 0.66 ng/ml) was “No suspicious findings”. The “Findings on [^89Zr]Zr-PSMA-617 PET/CT” value (prostate cancer lesions; Pt. no 4, PSA 1.77 ng/ml) was “Peritoneal metastasis + 4 × LNM”, the “Findings on [^89Zr]Zr-PSMA-617 PET/CT” value (prostate cancer lesions; Pt. no 5, PSA 0.63 ng/ml) was 1 × LNM and the “Findings on [^89Zr]Zr-PSMA-617 PET/CT” value (prostate cancer lesions; Pt. no 6, PSA 0.43 ng/ml) was “Local recurrence (in seminal vesicle bed)”. For the same compound, the “Findings on [^89Zr]Zr-PSMA-617 PET/CT” value (prostate cancer lesions; Pt. no 7, PSA 0.68 ng/ml) was “Local recurrence + 2 × LNM”, the “Total number of lesions suggestive for prostate cancer” value (prostate cancer lesions; all 7 patients, range 1–5 per patient) was 14 lesions and the “Tumor lesions identified at 1 h p.i. (also visible in [^68Ga]Ga-PSMA-11 PET/CT)” value (prostate cancer lesions; in 3 patients) was “Three”. The “Patients with at least one prostate cancer lesion detected” value (prostate cancer lesions; of 7 patients with negative or undetermined [^68Ga]Ga-PSMA-11 PET/CT) was 6 patients, the “Peritoneal metastases among identified lesions” value (prostate cancer lesions; of n = 14 lesions) was 1 lesions and the “Tumor lesions not visible at 1 h p.i. but delineated at later time points” value (prostate cancer lesions; of n = 14 lesions) was 11 lesions. The “Local recurrences among identified lesions” value (prostate cancer lesions; of n = 14 lesions, in 3 patients) was 3 lesions, the “Lymph node metastases among identified lesions” value (prostate cancer lesions; of n = 14 lesions, in 4 patients) was 10 lesions and the “Tumor lesions first visible at 24 h p.i.” value (prostate cancer lesions; [2]) was 9 lesions. For the same compound, the “Tumor lesions first visible at 48 h p.i.” value (prostate cancer lesions; [2]) was 2 lesions, the “SUVmax of tumor lesion” value (prostate cancer lesions; patient no. 1, focal uptake in the prostate bed (local recurrence), 48 h p.i.) was 3.68 and the “SUVmax of tumor lesion” value (prostate cancer lesions; patient no. 4, peritoneal lesion (peritoneal metastasis), 48 h p.i.) was 2.87. For the same compound, the “SUVmax of tumor lesion” value (prostate cancer lesions; patient no. 6, local recurrence in left seminal vesicle bed, 1 h p.i.) was 7.04, the “SUVmax of tumor lesion” value (prostate cancer lesions; patient no. 6, local recurrence in left seminal vesicle bed, 24 h p.i.) was 21.27 and the “SUVmax of tumor lesion” value (prostate cancer lesions; patient no. 6, local recurrence in left seminal vesicle bed, 48 h p.i.) was 21.09. For the same compound, the “SUVmax of tumor lesion” value (prostate cancer lesions; patient no. 6, local recurrence in left seminal vesicle bed, 72 h p.i.) was 19.19 and the “SUVmax of tumor lesion” value (prostate cancer lesions; patient no. 7, pelvic lymph node metastasis, 48 h p.i.) was 8.06.
